Source: EP1708721B1, “MYOCARDIAL PERFUSION IMAGING USING ADENOSINE RECEPTOR AGONISTS” (Gilead Sciences, Inc., priority 2004, dated 2005)
Where two headings read alike, the source gives them in different places.

Columns and labels:
[1] = half-life of CVT-3146 (background statement); settings: in vivo; species not stated; read-out: initial half-life
Description: (§1) The purpose of this open label study was to determine the magnitude and duration of effect of CVT-3146 (10-500 µg) on CBFv in humans.

humans = assay: Example 1: open label study, CBFv by Doppler flow wire after IV bolus in catheterization patients; format: in vivo
Description: as §1
METHODS: Patients undergoing a clinically indicated coronary catheterization with no more than a 70% stenosis in any coronary artery and no more than a 50% stenosis of the study vessel had CBFv determined by Doppler flow wire. Study subject were selected after measuring baseline and peak CBFv after an intracoronary (IC) injection of 18 µg of Ado. Twenty-three patients, who were identified as meeting the study criteria of having a peak to baseline CBFv ratio of ≥ 2.5 in response to Adenosine, received a rapid (≤ 10 sec) peripheral IV bolus of CVT-3146; Doppler signals were stable and interpretable over the time-course of the increase in CBFv in 17 patients.

human subjects = assay: Example 2: dose range study, coronary flow velocity, heart rate and blood pressure after IV bolus; format: in vivo
Description: The study included patients undergoing a clinically indicated coronary catheterization with no more than a 70% stenosis in any coronary artery and no more than a 50% stenosis of the study vessel had CBFv determined by Doppler flow wire. Study subject were selected after measuring baseline and peak CBFv after an intracoronary (IC) injection of 18 µg of Ado. 36 subjects were identified as meeting the study criteria of having a peak to baseline CBFv ration of ≥ 2.5 in response to Adenosine,
CVT-3146 was administered to the study subjects by IV bolus in less that 10 seconds in amounts ranging from 10 µg to 500 µg.
The effectiveness of both compounds was measured by monitoring coronary flow velocity. Other coronary parameters that were monitored included heart rate and blood pressure. These parameters were measured in order to evaluate the time to peak dose response, the magnitude of the dose response and the duration of the dose response. Adverse events were also monitored. Coronary blood flow velocity was measured at the left anterior descending coronary artery (LAD) or left circumflex coronary artery (LCx). The velocity measurements were taken by following standard heart catheterization techniques and inserting a 0.014 inch Doppler-tipped Flowire into the LAD or LCx vessel and thereafter monitoring blood flow velocity. In addition, hemodynamic and electrocardiographic measurements were recorded continuously.
Overall, 36 human subjects (n=36) were evaluated. Of the 36, 18 were female and 18 were male. Their mean age was 53.4 and they ranged from 24-72 years in age. Of the 36 subjects evaluated, the LAD vessel of 31 subjects was monitored, and the LCx vessel of 5 subjects was monitored. The following doses (µg) of CVT-3146 were given to the subjects in a single iv bolus: 10 (n=4); 30 (n=6); 100 (n=4); 300 (n=7); 400 (n=9); 500 (n=6).

[2] = Example 3: pharmacokinetic profile after a single IV bolus, three-compartment open model; format: in vivo, human; settings: for Vc / Vd / half-life / clearance: Mean (SD); for Vd / half-life / clearance: intravenous; for Vd: read-out: Vss
Description: This Example is a study performed to evaluate (1) the maximum tolerated dose of CVT-3146 and (2) the pharmacokinetic profile of CVT-3146 in healthy volunteers, after a single IV bolus dose.
CVT-3146 was administered as an IV bolus (20 seconds) in ascending doses of […], 10, 20 and 30 µg/kg.
Patient safety was monitored by ECG, laboratory assessments, and collection of vital signs and adverse events. Pharmacokinetics: • Plasma samples were drawn during supine phase (Days 1 and 2) at 0, 1, 2, 3, 4, 5, 7,10, 15, 20, 30, 45 minutes after dosing and at 1, 1.5., 2, 4, 6, 8,12 and 24 hours after dosing. Urine was collected for 24 hours for […] excretion. Pharmacodynamics: • The study evaluated the relationship of changes in heart rate to dose in both standing and supine positions and plasma concentration in the supine position.
A three-compartment open model was fit to the data using observed Tmax (1-4 minutes) as the duration of a zero-order infusion. Reliable parameter estimates were obtained for dose of 1-30 µg/kg. Parameters are summarized in the following (Table 2): Table 2

anesthetized dog = assay: Example 4: blood flow velocity in various vascular beds, intravascular Doppler catheter; format: in vivo; settings: 1.0 µg/kg intravenous bolus
Source text: The effects of CVT-3146 were quantified as the average peak blood flow velocity (APV) using intravascular Doppler transducer tipped catheter. Heart rate (HR) and systemic arterial blood pressure (BP) were also monitored. […] Increased blood flow velocity was associated with a small transient increase in HR (16 bpm) and decrease in BP (12 mmHg).

awake dogs = assay: Example 8: vasodilator effects in different vascular beds of chronically instrumented dogs; format: in vivo
Source text: In this study the vasodilator effects of CVT-3146 were compared to those of ADO in different vascular beds in awake dogs. Dogs were chronically instrumented for measurements of the blood flow in coronary (CBF), mesenteric (MBF), hind limb (LBF), and renal (RBF) vascular beds, and hemodynamics.

## CNC(=O)c1cnn(-c2nc(N)c3ncn([C@@H]4O[C@H](CO)[C@@H](O)[C@H]4O)c3n2)c1 [CVT-3146, (1-{9-[(4S,2R,3R,5R)-3,4-dihydroxy-5-(hydroxymethyl)oxolan-2-yl]-6-aminopurin-2-yl}pyrazol-4-yl)-N-methylcarboxamide]
[1]
  half-life: 3 min
humans; 300 µg IV bolus
  duration of CBFv augmentation (≥ 2-fold increase in CBFv): 4.0 ± 4.9 min
humans; 500 µg IV bolus
  duration of CBFv augmentation (≥ 2-fold increase in CBFv): 6.9 ± 7.6 min
humans; 500 µg IV bolus (n=3)
  maximal decrease in systolic blood pressure (BP): 8.7 ± 7.6
  maximal increase in heart rate (HR): 18.7 ± 4.0
humans; 3 patients receiving the 500 µg dose
  Adverse events (AEs): No AEs were noted
humans; 10-500 µg IV bolus, nausea, flushing, headache, mild and self-limited
  Adverse events (AEs): infrequent
humans; IV bolus, doses of 100 µg (n=3), 300 µg (n=4) and 500 µg (n=2), mean ± SD
  peak to baseline ratio (CBFv): 3.2 ± 0.6
Human subjects; 400 µg IV bolus
  Maximum decrease in diastolic BP: 10 ± 5 mmHg
  Maximum decrease in systolic BP: 20 ± 8 mmHg
  Maximum increase in heart rate: 18 ± 8 bpm
  time coronary blood flow velocity ≥ 2.5-fold above baseline was maintained: 2.8 min
  time of maximum decrease in diastolic BP after dosing: about 1 minute
  time of maximum increase in heart rate after dosing: about 1 minute
Human subjects; IV bolus
  amount at which plateau peak velocity is reached: less than 100 µg
  amount that increases peak flow velocity (as low as): 10 µg
Human subjects; all doses (10 to 500 µg IV bolus)
  time at which peak flow was reached: about 30 seconds
Human subjects; doses above about 100 µg
  peak effects: equivalent to 18 µg adenosine administered IC
[2]; Dose 1 µg/kg, N=3
  Vc: 9.84 (4.12) L
[2]; Dose 3 µg/kg, N=4
  Vc: 13.7 (6.06) L
[2]; Dose 10 µg/kg, N=4
  Vc: 17.9 (6.11) L
[2]; Dose 20 µg/kg, N=8
  Vc: 12.5 (5.83) L
[2]; Dose 30 µg/kg, N=3
  Vc: 15.7 (4.59) L
[2]; Total (doses 1-30 µg/kg), N=22
  Vc: 13.8 (5.67) L
[2]; human, plasma, 1 ug/kg, N=3
  Vd: 69 L
[2]; human, plasma, 1 ug/kg, N=3, read-out: a Half-life
  half-life: 2.14 min
[2]; human, plasma, 1 ug/kg, N=3, read-out: β Half-life
  half-life: 8.93 min
[2]; human, plasma, 1 ug/kg, N=3, read-out: λ Half-life
  half-life: 99 min
[2]; human, plasma, 3 ug/kg, N=4
  Vd: 90 L
[2]; human, plasma, 3 ug/kg, N=4, read-out: a Half-life
  half-life: 3.11 min
[2]; human, plasma, 3 ug/kg, N=4, read-out: β Half-life
  half-life: 17.2 min
[2]; human, plasma, 3 ug/kg, N=4, read-out: λ Half-life
  half-life: 130 min
[2]; human, plasma, 10 ug/kg, N=4
  Vd: 101 L
[2]; human, plasma, 10 ug/kg, N=4, read-out: a Half-life
  half-life: 4.15 min
[2]; human, plasma, 10 ug/kg, N=4, read-out: β Half-life
  half-life: 50.2 min
[2]; human, plasma, 10 ug/kg, N=4, read-out: λ Half-life
  half-life: 132 min
[2]; human, plasma, 20 ug/kg, N=8
  Vd: 75.2 L
[2]; human, plasma, 20 ug/kg, N=8, read-out: a Half-life
  half-life: 4.69 min
[2]; human, plasma, 20 ug/kg, N=8, read-out: β Half-life
  half-life: 32.6 min
[2]; human, plasma, 20 ug/kg, N=8, read-out: λ Half-life
  half-life: 117 min
[2]; human, plasma, 30 ug/kg, N=3
  Vd: 89.6 L
[2]; human, plasma, 30 ug/kg, N=3, read-out: a Half-life
  half-life: 3 min
[2]; human, plasma, 30 ug/kg, N=3, read-out: β Half-life
  half-life: 14 min
[2]; human, plasma, 30 ug/kg, N=3, read-out: λ Half-life
  half-life: 99.4 min
[2]; human, plasma, Total (doses 1-30 µg/kg), N=22
  Vd: 75.3 L
[2]; human, plasma, Total (doses 1-30 µg/kg), N=22, read-out: a Half-life
  half-life: 3.73 min
[2]; human, plasma, Total (doses 1-30 µg/kg), N=22, read-out: β Half-life
  half-life: 27.2 min
[2]; human, plasma, Total (doses 1-30 µg/kg), N=22, read-out: λ Half-life
  half-life: 86.4 min
[2]; male, human, plasma, 1 ug/kg, N=3
  clearance: 737 mL/min
[2]; male, human, plasma, 3 ug/kg, N=4
  clearance: 668 mL/min
[2]; male, human, plasma, 10 ug/kg, N=4
  clearance: 841 mL/min
[2]; male, human, plasma, 20 ug/kg, N=8
  clearance: 743 mL/min
[2]; male, human, plasma, 30 ug/kg, N=3
  clearance: 1020 mL/min
[2]; male, human, plasma, Total (doses 1-30 µg/kg), N=22
  clearance: 768 mL/min
[2]; male, human, plasma, IV bolus, supine, read-out: observed Tmax
  Tmax: 1 to 4 min
Anesthetized dog
  decrease in BP: 12 mmHg
  small transient increase in HR: 16 bpm
  time to dissipation of effect on blood flow velocity: less than ten
  time to peak of effect on blood flow velocity: less than 30 sec
Anesthetized dog; brain arterial vasculature (BA)
  APV increased (average peak blood flow velocity): 1.4 ± 0.1 fold
Anesthetized dog; forelimb artery (FA)
  APV increased (average peak blood flow velocity): 1.2 ± 0.1 fold
Anesthetized dog; left circumflex coronary artery (LCX)
  APV increased (average peak blood flow velocity): 3.1 ± 0.2 fold
Anesthetized dog; pulmonary artery (PA)
  APV increased (average peak blood flow velocity): 1.1 ± 0.01 fold
Awake dogs; 2.5 µg/kg
  duration for CBF above 2-fold of the baseline: 130 ± 19 s
Awake dogs; Figure 18, mean ± SE, n=6, compared with ADO
  increase in LBF (hind limb blood flow): smaller increase in LBF than ADO
